Test results: article PMC5768343, “A natural inhibitor of kidney-type glutaminase: a withanolide from Physalis pubescens with potent anti-tumor activity” (Oncotarget, 2017)

Assays:
[1] = system: human fibrosarcoma cells (HT1080); assay: CCK8 cytotoxicity assay, HT1080; format: cell-based; settings: HT-1080, CCK8, 48 h
Description: The SW1990, HT1080, and A375-S2 human tumor cell lines were obtained from ATCC (Manassas, VA, USA). […] SW1990, HT1080, and LO2 cells were cultured in DMEM medium with 10% fetal bovine serum (FBS). All of these cells were cultured at 37°C in a humidified atmosphere with 5% CO2. To estimate cell viability, cells (5000/well) were separately seeded in 96-well plates for 24 h at 37°C in a 5% CO2 incubator. […] All the experiments were performed in triplicate, and the mean absorbance values were calculated. The IC50 values of the compounds were derived from the mean OD values of the triplicate tests versus the drug concentration curves.

SW1990 xenograft = SW1990 xenograft mouse model; format: in vivo; settings: 5 mg/kg intraperitoneal injection daily, P < 0.01, dose-dependent
Description: All animal experiments were performed in accordance with the Guide for the Care and Use of Laboratory Animals of Tongji Medical College, Huazhong University of Science and Technology and approved by the Ethics Committee. CB-17/ SCID mice (male, 4 weeks old) were purchased from Beijing HFK Bioscience CO., LTD (Beijing, China). SW1990 cells were inoculated subcutaneously (3 × 10^6 cells) into the left flank of each mouse. Six days later, mice were randomly divided into […] and were injected i.p. daily for 16 days with one of the following treatments: (1) natural saline group (n = 10); (2) 5 mg/Kg physapubescin K (n = 10); (3) 10 mg/Kg physapubescin K (n = 10). The dose volume was 0.1 mL/10 g body weight, and the weights of mice were recorded every day. Meanwhile, the tumor volumes were measured with vernier calipers and calculated by the following formula: (A × B2)/2, where A was length and B was width of the two-dimension tumor. After animals were sacrificed, tumor weights were measured. The inhibition ratio (%) was calculated using the following equation: I% = 100% × [Wtumor (vehicle) − Wtumor (treated)]/Wtumor (vehicle)

[2] = system: glutamine metabolism in SW1990 cells; assay: Intracellular metabolite levels and NADPH/NADP+, SW1990; format: cell-based, human; settings: SW1990, 2.5 or 5 μM, 4 hours
Description: (§1) Blocking glutamine metabolism can inhibit the growth and proliferation of glutamine-dependent cells, mainly because of blocking the production and utilization of glutamine metabolites. The effects of different concentrations of physapubescin K on the intracellular glutamine and its downstream metabolites were examined. […] And the same effect could also be seen in Hcc827-ER cells (Figure 7C).
(§2) NADPH/NADP^+ ratio was determined by using NADP^+/NADPH Quantification Colorimetric Kit (BioVision, #K347-100). The abundance of intracellular glutamine (KeyGen, Nanjing, China A124), glutamate (KeyGen, Nanjing, China A074), (BioVision, #K778), aspartate (BioVision, #K552), oxaloacetate (BioVision, #K659) and malate (BioVision, #K637) was determined by using quantification kits, according the manufacturer’s instruction. Briefly, 5 × 10^6 cells (10-cm dishes) were collected during log-phase growth by cell scraper, homogenized in 0.2 mL of provided buffers (on ice), and centrifuged at 4°C for 10 min at 13,000 g. Supernatants were deproteinized using 10 K Ultrafiltration tube (Millipore, USA), analyzed and compared to standard curves. The signals obtained were normalized to the protein concentration calculated upon processing a parallel 10-cm dish.

SW1990 cells [3] = assay: Flow cytometric analysis for apoptosis (Annexin V/PI); format: cell-based, human; settings: SW1990, 24 h
Description: SW1990 cells were cultured in six-well plates and treated with different concentrations of physapubescin K for 24 h. Then the cells were harvested, washed twice with ice-cold PBS, and mixed in 100 μL of 1× binding buffer (10 mM HEPES/ NaOH, pH 7.4, 140 mM NaCl, 2.5 mM CaCl2). After incubating with Annexin-V and PI staining liquid (Nanjing KeyGen Biotech. Inc.) for 15 min at room temperature, the cells were examined by flow cytometry (BD Biosciences, FACSCalibur).

SW1990 cells [4] = assay: ROS quantification (DCFDA assay); format: cell-based, human; settings: 2.5 or 5 μM, 24 h
Description: DCFDA assay was performed 24 h after interfered with difference concentration of physapubescin K or DMSO. Cells were incubated with 5 μM 2′,7′-dichlorodihydrofluorescein diacetate (DCFDA, KeyGen, Nanjing, China A124) for 30 min. Cells were washed twice with PBS to remove excess DCFDA, and the labeled cells were then collected in PBS. The fluorescent of 2′,7′-dichloro-fluorescein (DCF) was proportionate to ROS generation and was measured by microplate reader.

intracellular KGA = biological target: T1, intracellular KGA (Homo sapiens, UniProt O94925); assay: Cellular thermal shift assay (CETSA) in intact SW1990 cells; format: cell-based; settings: 10 μM, 4 hours, 48°C without compound
T1 construct: endogenous in cells; host or cells: SW1990
T1 sequence (O94925 55-669): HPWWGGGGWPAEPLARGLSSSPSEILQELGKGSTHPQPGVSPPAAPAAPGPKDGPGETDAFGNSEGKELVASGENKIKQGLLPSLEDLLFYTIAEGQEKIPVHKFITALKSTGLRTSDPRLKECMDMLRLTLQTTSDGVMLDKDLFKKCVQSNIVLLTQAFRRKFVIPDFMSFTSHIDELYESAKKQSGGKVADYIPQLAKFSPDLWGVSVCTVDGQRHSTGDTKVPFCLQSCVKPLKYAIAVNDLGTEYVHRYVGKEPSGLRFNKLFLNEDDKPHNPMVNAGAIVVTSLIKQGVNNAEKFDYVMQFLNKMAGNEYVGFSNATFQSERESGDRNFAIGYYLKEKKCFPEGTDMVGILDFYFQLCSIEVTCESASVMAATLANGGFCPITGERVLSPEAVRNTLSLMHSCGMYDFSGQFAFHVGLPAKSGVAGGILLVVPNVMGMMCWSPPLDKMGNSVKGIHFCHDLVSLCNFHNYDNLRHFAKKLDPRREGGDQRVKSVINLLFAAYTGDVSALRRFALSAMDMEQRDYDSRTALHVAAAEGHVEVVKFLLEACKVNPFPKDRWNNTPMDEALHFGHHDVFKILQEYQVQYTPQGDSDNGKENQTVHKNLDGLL
Description: To further investigate the interaction of the compound with KGA, microscale thermophoresis method (MST) was used to assay the binding affinity between physapubescin K and KGA. This technology can quantify protein-protein or protein-small molecule interactions with high sensitivity through detecting fluorescent changes of molecules during thermophoresis. […] However, it was of vital importance to verify whether it could bind with the intracellular KGA. The cellular thermal shift assay (CETSA), which based on the biophysical principle of ligand-induced thermal stabilization of target protein [25], was thus conducted to investigate its affinity with intracellular KGA. […] As shown in Figure 4B and 4C, physapubescin K increased the thermal stability of KGA in intact cells from tolerate temperature of 48°C to temperature of 50°C.
The ability of compounds to interact with, and thereby stabilize the target in intact cells, was analyzed essentially as described by Alshareef A et al.. Briefly, cells cultured in 10-cm tissue culture dishes at about 90% confluence were treated with media containing DMSO or 10 μM physapubescin K for 4 hours. After treatment, cells were detached with cell scraper, collected by centrifugation and subsequently resuspended in PBS. The cell suspension was aliquoted into seven PCR tubes and heated for 3 minutes to 40, 42, 44, 46, 48, 50 or 52°C. […]

[5] = system: glutamine metabolism in T47D cells; assay: Intracellular metabolite levels, T47D; format: cell-based, human; settings: 2.5 or 5 μM, 4 hours
Description: as §1, §2

CO[C@H]1O[C@@H]([C@@H](C)[C@H]2C[C@H](OC(C)=O)[C@H]3[C@@H]4C[C@H]5O[C@]56[C@@H](O)C=CC(=O)[C@]6(C)[C@H]4CC[C@@]32C)C[C@]2(C)O[C@]12C [physapubescin K]
IC50 [1]: 2.85 ± 0.6 µM
growth of the tumor (SW1990 xenograft): significantly inhibit the growth of the tumor
consumption of glutamine [2]: significantly reduce
production of glutamic acid and its downstream metabolites (oxaloacetic acid, aspartic acid, malic acid) [2]: decrease
proportion of NADPH/NADP+ [2]: significantly reduced
apoptosis (SW1990 cells [3]): induce apoptosis
intracellular reactive oxygen species (ROS) levels (SW1990 cells [4]): significantly increase
thermal stability of KGA, tolerate temperature (intracellular KGA): 50 °C
effects on glutamine metabolism [5]: moderate effects
